The text below walks through data of patent publication US20080085884A1, “Melanin Concentrating Hormone Receptor-1 Antagonist Pyridinones” (Pfizer Inc, priority 2006, published 2008).

Where a name gives a salt, the structure may show the parent alone.

In this assay the target is T1, human MCHR1 (Homo sapiens, UniProt Q99705).
T1 construct: host or cells: CHO
T1 sequence (Q99705 whole entry): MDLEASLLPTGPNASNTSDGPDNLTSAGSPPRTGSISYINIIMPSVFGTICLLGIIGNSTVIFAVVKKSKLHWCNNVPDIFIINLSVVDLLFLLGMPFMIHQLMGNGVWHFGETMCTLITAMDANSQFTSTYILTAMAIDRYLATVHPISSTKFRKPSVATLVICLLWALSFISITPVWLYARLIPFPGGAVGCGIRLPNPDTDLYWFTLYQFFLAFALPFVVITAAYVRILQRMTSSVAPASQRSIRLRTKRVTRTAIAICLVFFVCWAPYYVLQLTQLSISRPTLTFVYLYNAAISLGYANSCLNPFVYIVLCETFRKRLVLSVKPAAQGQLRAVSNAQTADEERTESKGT
Put plainly: Cyclic AMP assay (MCHR-1 functional antagonism). Type of assay: cell-based. Particulars: CHO cells stably expressing human MCHR1; cAMP accumulation with 25 uM forskolin and 0.2 nM MCH, 90 min; Ki from IC50 by Cheng-Prusoff; read-out: MCHR-1 functional Ki. The protocol:
CHO cell lines stably expressing the human MCHR1 (Euroscreen, Brussels, Belgium) were maintained in DMEM containing Glutamax (Invitrogen, Carlsbad, Calif.), 10% FBS, 400 ug/ml Geneticin.
Cyclic AMP assays. CHO cells stably expressing the human MCHR1 receptors were collected and resuspended at a density of 4.0×10^6 cells/ml in F12 (Hams) media and seeded (20,000 cells per well) into 384-well, solid white Greiner assay plates. […] Cells were incubated at 37° C./5% CO2 for 90 minutes and cAMP accumulation subsequently determined by DiscoveRx Hithunter c-AMP II Assay kit (GE Healthcare, Buckinghamshire, UK) in accordance with manufactures instructions. Luminescence was measured on a LEADseaker imaging system (GE Healthcare, Buckinghamshire, UK). IC50 values were calculated from dose-response data fit using an in-house computer graphics and statistics program.
Take `CN(C)C(=O)C1CCN(c2ccc(-n3ccc(OCc4ccccc4)cc3=O)cn2)C1` (racemic) [Example 25, 1-[4-(Benzyloxy)-2-oxo-2H-1,3′-bipyridin-6′-yl]-N,N-dimethylpyrrolidine-3-carboxamide]: the Ki (commonly the equilibrium dissociation constant of an inhibitor or competing ligand from its target) was determined as 80.9 nM.
Regarding `CC1(N)CCN(c2ccc(-n3ccc(OCc4ccccc4)cc3=O)cn2)C1` (single isomer, unassigned) [Example 17a, 6′-(3-Amino-3-methylpyrrolidin-1-yl)-4-(benzyloxy)-2H-1,3′-bipyridin-2-one], the Ki was determined as 15.3 nM.
Regarding `CC1(N)CCN(c2ccc(-n3ccc(OCc4ccccc4)cc3=O)cn2)C1` (single isomer, unassigned) [Example 17b, 6′-(3-Amino-3-methylpyrrolidin-1-yl)-4-(benzyloxy)-2H-1,3′-bipyridin-2-one], the Ki came out at 38.1 nM.
Turning to `CNC1(C)CCN(c2ccc(-n3ccc(OCc4ccccc4)cc3=O)cn2)C1` (single isomer, unassigned) [Example 18a, 4-(Benzyloxy)-6′-[3-methyl-3-(methylamino)pyrrolidin-1-yl]-2H-1,3′-bipyridin-2-one], the Ki stood at 8.86 nM.
In the case of `CNC1(C)CCN(c2ccc(-n3ccc(OCc4ccccc4)cc3=O)cn2)C1` (single isomer, unassigned) [Example 18b, 4-(Benzyloxy)-6′-[3-methyl-3-(methylamino)pyrrolidin-1-yl]-2H-1,3′-bipyridin-2-one], the Ki came out at 18.3 nM.
For the compound `CN(C)C(=O)C1CCN(c2ccc(-n3ccc(OCc4ccccc4)cc3=O)cn2)C1` (single isomer, unassigned) [Example 25a, 1-[4-(Benzyloxy)-2-oxo-2H-1,3′-bipyridin-6′-yl]-N,N-dimethylpyrrolidine-3-carboxamide], the Ki amounted to 71.1 nM.
Consider `CN(C)C(=O)C1CCN(c2ccc(-n3ccc(OCc4ccccc4)cc3=O)cn2)C1` (single isomer, unassigned) [Example 25b, 1-[4-(Benzyloxy)-2-oxo-2H-1,3′-bipyridin-6′-yl]-N,N-dimethylpyrrolidine-3-carboxamide], for which the Ki turned out to be 69.6 nM.
Take `CC(=O)N1CCN(c2ccc(-n3ccc(OCc4ccccc4)cc3=O)cn2)CC1` [Example 1, 6′-(4-Acetylpiperazin-1-yl)-4-(benzyloxy)-2H-1,3′-bipyridin-2-one]: the Ki turned out to be 47.7 nM.
On to `O=c1cc(OCc2ccccc2)ccn1-c1ccc(N2CCNCC2)nc1` [Example 2, 4-(Benzyloxy)-6′-piperazin-1-yl-2H-1,3′-bipyridin-2-one], for which the inhibition constant Ki worked out at 89.9 nM.
For `CN1C[C@@H]2CN(c3ccc(-n4ccc(OCc5ccccc5)cc4=O)cn3)C[C@@H]2C1` [Example 3, 4-(Benzyloxy)-6′-[(3aR,6aS)-5-methylhexahydropyrrolo[3,4-c]pyrrol-2(1H)-yl]-2H-1,3′-bipyridin-2-one], the inhibition constant (Ki) is 10.1 nM.
As for `CC(C)(C)OC(=O)N1C[C@@H]2CN(c3ccc(-n4ccc(OCc5ccccc5)cc4=O)cn3)C[C@@H]2C1` [Example 4, tert-Butyl (3aR,6aS)-5-[4-(benzyloxy)-2-oxo-2H-1,3′-bipyridin-6′-yl]hexahydropyrrolo[3,4-c]pyrrole-2(1H)-carboxylate], the Ki was found to be 1950 nM.
`CN(C)C1CCN(c2ccc(-n3ccc(OCc4ccccc4)cc3=O)cn2)CC1` [Example 5, 4-(Benzyloxy)-6′-[4-(dimethylamino)piperidin-1-yl]-2H-1,3′-bipyridin-2-one]: the Ki turned out to be 111 nM.
As for `CN1CCN(c2ccc(-n3ccc(OCc4ccccc4)cc3=O)cn2)CC1` [Example 6, 4-(Benzyloxy)-6′-(4-methylpiperazin-1-yl)-2H-1,3′-bipyridin-2-one], the Ki is 163 nM.
The figure for `CCN1CCN(c2ccc(-n3ccc(OCc4ccccc4)cc3=O)cn2)CC1` [Example 7, 4-(Benzyloxy)-6′-(4-ethylpiperazin-1-yl)-2H-1,3′-bipyridin-2-one] is 87.1 nM; for `O=c1cc(OCc2ccccc2)ccn1-c1ccc(N2C[C@H]3CNC[C@H]3C2)nc1` [Example 8, 4-(Benzyloxy)-6′-[(3aR,6aS)-hexahydropyrrolo[3,4-c]pyrrol-2(1H)-yl]-2H-1,3′-bipyridin-2-one dihydrochloride] it is 8.67 nM; for `O=c1cc(OCc2ccc(Cl)cc2)ccn1-c1ccc(N2CC[C@@H](O)C2)nc1` [Example 10, 4-[(4-Chlorobenzyl)oxy]-6′-[(3R)-3-hydroxypyrrolidin-1-yl]-2H-1,3′-bipyridin-2-one] it is 42.8 nM.
With `O=c1cc(OCc2ccccc2)ccn1-c1ccc(N2CC[C@@H](O)C2)nc1` [Example 11, 4-(Benzyloxy)-6′-[(3R)-3hydroxypyrrolidin-1-yl]-2H-1,3′-bipyridin-2-one] the figure was 97.2 nM; with `CN(C(=O)OC(C)(C)C)[C@H]1CCN(c2ccc(-n3ccc(OCc4ccccc4)cc3=O)cn2)C1` [Example 12, tert-Butyl {(3S)-1-[4-(benzyloxy)-2-oxo-2H-1,3′-bipyridin-6′-yl]pyrrolidin-3-yl}methyl carbamate], 9.98 nM.
For the compound `CN[C@H]1CCN(c2ccc(-n3ccc(OCc4ccccc4)cc3=O)cn2)C1` [Example 13, 4-(Benzyloxy)-6′-[(3S)-3-(methylamino)pyrrolidin-1-yl]-2H-1,3′-bipyridin-2-one dihydrochloride], the inhibitory constant (Ki) came to 4.88 nM.
With `CN[C@@H]1CCN(c2ccc(-n3ccc(OCc4ccccc4)cc3=O)cn2)C1` [Example 15, 4-(benzyloxy)-6′-[(3R)-3-(methylamino)pyrrolidin-1-yl]-2H-1,3′-bipyridin-2-one dihydrochloride] the figure was 3.62 nM; with `O=c1cc(OCc2ccccc2)ccn1-c1ccc(N2CC[C@H](O)C2)nc1` [Example 16, 4-(benzyloxy)-6′-[(3S)-3-hydroxypyrrolidin-1-yl]-2H-1,3′-bipyridin-2-one], 133 nM; with `CCN[C@@H]1CCN(c2ccc(-n3ccc(OCc4ccccc4)cc3=O)cn2)C1` [Example 19, 4-(Benzyloxy)-6′-[(3R)-3-(ethylamino)pyrrolidin-1-yl]-2H-1,3′-bipyridin-2-one], 6.78 nM.
With `CC(=O)N(C)[C@H]1CCN(c2ccc(-n3ccc(OCc4ccccc4)cc3=O)cn2)C1` [Example 20, N-{(3S)-1-[4-(Benzyloxy)-2-oxo-2H-1,3′-bipyridin-6′-yl]pyrrolidin-3-yl}-N-methylacetamide] the figure was 15.2 nM; with `CCN(C(=O)OC(C)(C)C)[C@@H]1CCN(c2ccc(-n3ccc(OCc4ccccc4)cc3=O)cn2)C1` [Example 23a, tert-Butyl {(3R)-1-[4-(benzyloxy)-2-oxo-2H-1,3′-bipyridin-6′-yl]pyrrolidin-3-yl}ethylcarbamate], 15.7 nM.
As for `CCN1C[C@@H]2CN(c3ccc(-n4ccc(OCc5ccccc5)cc4=O)cn3)C[C@@H]2C1` [Example 26, 4-(Benzyloxy)-6′-[(3aR,6aS)-5-ethylhexahydropyrrolo[3,4-c]pyrrol-2(1H)-yl]-2H-1,3′-bipyridin-2-one], the Ki was 6.64 nM.
With `O=C1CCCN1[C@H]1CCN(c2ccc(-n3ccc(OCc4ccccc4)cc3=O)cn2)C1` [Example 27] the figure was 71.4 nM; with `O=c1cc(OCc2ccc(Cl)cc2)ccn1-c1ccc(N2CC[C@H](O)C2)nc1` [Example 29, 4-[(4-Chlorobenzyl)oxy]-6′-[(3S)-3-hydroxypyrrolidin-1-yl]-2H-1,3′-bipyridin-2-one], 23.7 nM.
Regarding `O=C1CCN(c2ccc(-n3ccc(OCc4ccccc4)cc3=O)cn2)C1` [Example 30, 4-(Benzyloxy)-6′-(3-oxopyrrolidin-1-yl)-2H-1,3′-bipyridin-2-one], the Ki was 2470 nM.
As for `CN(C(=O)OC(C)(C)C)[C@H]1CCN(c2ccc(-n3ccc(CCc4ccccc4)cc3=O)cn2)C1` [Example 32, tert-Butyl methyl{(3S)-1-[2-oxo-4-(2-phenylethyl)-2H-1,3′-bipyridin-6′-yl]pyrrolidin-3-yl}-carbamate], the Ki was determined as 18.3 nM.
As for `CN[C@@H]1CCN(c2ccc(-n3ccc(OCc4ccccc4)cc3=O)nc2)C1` [Example 33, 4-(Benzyloxy)-5′-[(3R)-3-(methylamino)pyrrolidin-1-yl]-2H-1,2′-bipyridin-2-one], the Ki is 19.4 nM.
Take `O=c1cc(OCc2ccccc2)ccn1-c1ccc(N2CCCC2)nc1` [Example 34, 4-(benzyloxy)-6′-pyrrolidin-1-yl-2H-1,3′-bipyridin-2-one]: the Ki was 54.3 nM.
With `NC1CN(c2ccc(-n3ccc(OCc4ccc(F)cc4)cc3=O)cn2)C1` [Example 35] the figure was 232 nM; with `CO[C@H]1CCN(c2ccc(-n3ccc(OCc4ccccc4)cc3=O)cn2)C1` [Example 36], 75.5 nM; with `COC1CCN(c2ccc(-n3ccc(OCc4ccccc4)cc3=O)cn2)C1` (centres unmarked) [Example 37], 42.7 nM.
Regarding `CCO[C@@H]1CCN(c2ccc(-n3ccc(OCc4ccccc4)cc3=O)cn2)C1` [Example 39], the Ki came to 42 nM.
With `CCO[C@H]1CCN(c2ccc(-n3ccc(OCc4ccccc4)cc3=O)cn2)C1` [Example 40], the Ki is 34.1 nM.
The figure for `CCOC(=O)N[C@@H]1CCN(c2ccc(-n3ccc(OCc4ccccc4)cc3=O)cn2)C1` [Example 43] is 364 nM; for `CC1(O)CCN(c2ccc(-n3ccc(OCc4ccccc4)cc3=O)cn2)CC1` [Example 44] it is 113 nM.
The figure for `CC(C)C1(O)CCN(c2ccc(-n3ccc(OCc4ccccc4)cc3=O)cn2)C1` (centres unmarked) [Example 45] is 270 nM; for `O=c1cc(OCc2ccccc2)ccn1-c1ccc(N2CCC(O)CC2)nc1` [Example 46] it is 212 nM; for `COC1CCN(c2ccc(-n3ccc(OCc4ccccc4)cc3=O)cn2)CC1` [Example 47] it is 57.8 nM.
